Source: ChEMBL document CHEMBL1201862, “PubChem BioAssay data set” (2004)
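Compound exposure: 48 hours, 5 concentrations, 96-well plates. GI50 marks 50% less growth.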 Active and inactive are the calls of the source. Rule as the data show it: active = GI50 up to about 1.1 µM and inactive = higher.

Columns and labels:
Assay in all cases: NCI anticancer screen, dose series, 48 h
A498 = test system: A498
HCC 2998 = test system: HCC 2998
HCT-15 = test system: HCT-15
LOX IMVI = test system: LOX IMVI
M14 = test system: M14
MOLT-4 = test system: MOLT-4
NCI-H23 = test system: NCI-H23
OVCAR-5 = test system: OVCAR-5
RPMI-8226 = test system: RPMI-8226
SF-295 = test system: SF-295
SK-MEL-2 = test system: SK-MEL-2
SR = test system: SR
SW-620 = test system: SW-620
TK-10 = test system: TK-10
HCT-116 = test system: HCT-116
SF-268 = test system: SF-268
UACC-257 = test system: UACC-257

Structure (SMILES) | GI50 (A498) | GI50 (HCC 2998) | GI50 (HCT-15) [µM] | GI50 (LOX IMVI) | GI50 (M14) | GI50 (MOLT-4) | GI50 (NCI-H23) | GI50 (OVCAR-5) | GI50 (RPMI-8226) | GI50 (SF-295) | GI50 (SK-MEL-2) | GI50 (SR) | GI50 (SW-620) | GI50 (TK-10) | GI50 (HCT-116) | GI50 (SF-268) | GI50 (UACC-257)
CCN1C(=O)N2C(OC)c3ccccc3C(Br)C2(OC)C1=O (centres undefined) | > 100 µM (inactive) | > 100 µM (inactive) | > 100 | > 100 µM (inactive) | > 100 µM (inactive) | > 100 µM (inactive) | > 100 µM (inactive) | > 100 µM (inactive) | > 100 µM (inactive) | > 100 µM (inactive) | > 100 µM (inactive) | > 100 µM (inactive) | > 100 µM (inactive) | > 100 µM (inactive) | – | – | –
Cc1ccc(NC(=O)SCCC(=O)O)cc1 | > 100 µM (inactive) | > 100 µM (inactive) | > 100 | > 100 µM (inactive) | > 100 µM (inactive) | > 100 µM (inactive) | > 100 µM (inactive) | > 100 µM (inactive) | > 100 µM (inactive) | > 100 µM (inactive) | > 100 µM (inactive) | > 100 µM (inactive) | > 100 µM (inactive) | > 100 µM (inactive) | > 100 µM (inactive) | 17.2 µM (inactive) | > 100 µM (inactive)
O=c1n(C2CCCCC2)c(=C(Cl)Cl)c(=C(Cl)Cl)n1C1CCCCC1 | > 100 µM (inactive) | > 100 µM (inactive) | > 100 | > 100 µM (inactive) | – | > 100 µM (inactive) | > 100 µM (inactive) | > 100 µM (inactive) | 34.6 µM (inactive) | > 100 µM (inactive) | > 100 µM (inactive) | > 100 µM (inactive) | > 100 µM (inactive) | > 100 µM (inactive) | 85.7 µM (inactive) | > 100 µM (inactive) | 54.5 µM (inactive)
CC(C)=CC1CC(=[N+]=[N-])C(=O)C1(C)C (centres undefined) | > 100 µM (inactive) | > 100 µM (inactive) | 86.5 | > 75.7 µM (inactive) | > 100 µM (inactive) | > 100 µM (inactive) | > 100 µM (inactive) | > 100 µM (inactive) | > 51.8 µM (inactive) | > 100 µM (inactive) | > 100 µM (inactive) | 23.1 µM (inactive) | > 100 µM (inactive) | > 100 µM (inactive) | > 100 µM (inactive) | > 100 µM (inactive) | > 100 µM (inactive)
C#Cc1ccccc1C(=O)OC | > 100 µM (inactive) | > 100 µM (inactive) | > 100 | > 100 µM (inactive) | > 100 µM (inactive) | > 100 µM (inactive) | > 100 µM (inactive) | > 100 µM (inactive) | > 100 µM (inactive) | > 100 µM (inactive) | > 100 µM (inactive) | > 100 µM (inactive) | > 100 µM (inactive) | > 100 µM (inactive) | > 100 µM (inactive) | – | > 100 µM (inactive)
CC(=O)NNc1nc(C)c(C(=O)/C=C/c2cccc([N+](=O)[O-])c2)s1 | > 100 µM (inactive) | > 100 µM (inactive) | > 100 | > 100 µM (inactive) | > 100 µM (inactive) | > 100 µM (inactive) | > 100 µM (inactive) | > 100 µM (inactive) | > 100 µM (inactive) | > 100 µM (inactive) | > 100 µM (inactive) | > 100 µM (inactive) | > 100 µM (inactive) | > 100 µM (inactive) | > 100 µM (inactive) | > 100 µM (inactive) | > 100 µM (inactive)
O=CN/C=C/c1ccccc1O | > 100 µM (inactive) | > 100 µM (inactive) | > 100 | > 100 µM (inactive) | > 100 µM (inactive) | > 100 µM (inactive) | > 100 µM (inactive) | > 100 µM (inactive) | > 100 µM (inactive) | > 100 µM (inactive) | > 100 µM (inactive) | > 100 µM (inactive) | > 100 µM (inactive) | > 100 µM (inactive) | > 100 µM (inactive) | > 79.8 µM (inactive) | > 100 µM (inactive)
